Source: ChEMBL document CHEMBL1128524, “The histamine H1-receptor antagonist binding site. A stereoselective pharmacophoric model based upon (semi-)rigid H1-antagonists and including a known interaction site on the receptor” (J Med Chem, 1995)

What was measured:
Histamine H1 receptor [1] = target: T1, Histamine H1 receptor (Cavia porcellus, UniProt P31389); assay: (§1) Potency against histamine H1 receptor on guinea pig ileum; type: tissue-based; conditions: read-out: pA2 (converted)
Histamine H1 receptor [2] = target: T1, Histamine H1 receptor; assay: Inhibition of [3H]mepyramine binding with histamine H1 receptor in guinea pig cerebellum membranes after 30 min; type: cell membranes, Membrane
Histamine H1 receptor [3] = target: T1, Histamine H1 receptor; assay: Inhibition of [3H]mepyramine binding with histamine H1 receptor in guinea pig cerebellum membranes; type: cell membranes, Membrane
[4] = target: Histamine H1 receptor (Cavia porcellus) (UniProt P31389); assay: as §1; type: tissue-based
Histamine H1 receptor (Cavia porcellus), sequence (P31389 whole entry): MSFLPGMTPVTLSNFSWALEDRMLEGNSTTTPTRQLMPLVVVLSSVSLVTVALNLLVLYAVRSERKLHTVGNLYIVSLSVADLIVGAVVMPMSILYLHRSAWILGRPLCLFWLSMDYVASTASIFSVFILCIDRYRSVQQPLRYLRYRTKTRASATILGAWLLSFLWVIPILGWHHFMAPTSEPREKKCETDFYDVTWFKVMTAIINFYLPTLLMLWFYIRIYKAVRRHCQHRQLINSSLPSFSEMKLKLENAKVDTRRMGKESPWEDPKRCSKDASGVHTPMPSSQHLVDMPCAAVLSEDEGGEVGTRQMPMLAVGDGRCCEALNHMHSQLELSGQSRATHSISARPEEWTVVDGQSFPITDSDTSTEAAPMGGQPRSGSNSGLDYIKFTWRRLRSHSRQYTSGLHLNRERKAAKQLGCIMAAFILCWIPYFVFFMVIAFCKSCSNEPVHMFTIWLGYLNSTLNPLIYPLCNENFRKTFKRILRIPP

Histamine H1 receptor [5] = target: T1, Histamine H1 receptor; assay: as §1

T1 sequence (P31389 whole entry): as above

Compound | Kb (Histamine H1 receptor [1]) | Ki (Histamine H1 receptor [2]) | further results
Cc1ccc([C@H](OCCN(C)C)c2ccccc2)cc1 | 2 nM | 12.3 nM | –
Cc1ccc([C@@H](OCCN(C)C)c2ccccc2)cc1 | 158 nM | – | Ki (Histamine H1 receptor [3]): 12.3 nM
c1ccc2c(c1)Sc1ccccc1N2C1CN2CCC1CC2 (configuration not stated) | – | – | pED50 [4]: 7.3
c1ccc2c(c1)Sc1ccccc1N2CC1CN2CCC1CC2 (configuration not stated) | – | – | pED50 [4]: 7.2
NC1=NCC2c3ccccc3Cc3ccccc3N12 (configuration not stated) [EPINASTINE] | – | 1.41 nM | IC50 (Histamine H1 receptor [5]): 1.58 nM
CN1CCC2=C(C1)C(c1ccccc1)c1ccccc12 (configuration not stated) [PHENINDAMINE] | 1.58 nM | 6.31 nM | –
Cc1ccc(/C(=C\CN2CCCC2)c2ccccn2)cc1 [TRIPROLIDINE] | 0.126 nM | 1.66 nM | –
